Experimental findings from US20250034216A1, “STEREOSELECTIVE COVALENT LIGANDS FOR ONCOGENIC AND IMMUNOLOGICAL PROTEINS” (The Scripps Research Institute, priority 2021, published 2025) are described below.

In one assay the target is T1, ZBED4_C599 (Homo sapiens, UniProt O75132).
T1 construct: endogenous in cells; host or cells: 22Rv1
T1 sequence (O75132 1-1171): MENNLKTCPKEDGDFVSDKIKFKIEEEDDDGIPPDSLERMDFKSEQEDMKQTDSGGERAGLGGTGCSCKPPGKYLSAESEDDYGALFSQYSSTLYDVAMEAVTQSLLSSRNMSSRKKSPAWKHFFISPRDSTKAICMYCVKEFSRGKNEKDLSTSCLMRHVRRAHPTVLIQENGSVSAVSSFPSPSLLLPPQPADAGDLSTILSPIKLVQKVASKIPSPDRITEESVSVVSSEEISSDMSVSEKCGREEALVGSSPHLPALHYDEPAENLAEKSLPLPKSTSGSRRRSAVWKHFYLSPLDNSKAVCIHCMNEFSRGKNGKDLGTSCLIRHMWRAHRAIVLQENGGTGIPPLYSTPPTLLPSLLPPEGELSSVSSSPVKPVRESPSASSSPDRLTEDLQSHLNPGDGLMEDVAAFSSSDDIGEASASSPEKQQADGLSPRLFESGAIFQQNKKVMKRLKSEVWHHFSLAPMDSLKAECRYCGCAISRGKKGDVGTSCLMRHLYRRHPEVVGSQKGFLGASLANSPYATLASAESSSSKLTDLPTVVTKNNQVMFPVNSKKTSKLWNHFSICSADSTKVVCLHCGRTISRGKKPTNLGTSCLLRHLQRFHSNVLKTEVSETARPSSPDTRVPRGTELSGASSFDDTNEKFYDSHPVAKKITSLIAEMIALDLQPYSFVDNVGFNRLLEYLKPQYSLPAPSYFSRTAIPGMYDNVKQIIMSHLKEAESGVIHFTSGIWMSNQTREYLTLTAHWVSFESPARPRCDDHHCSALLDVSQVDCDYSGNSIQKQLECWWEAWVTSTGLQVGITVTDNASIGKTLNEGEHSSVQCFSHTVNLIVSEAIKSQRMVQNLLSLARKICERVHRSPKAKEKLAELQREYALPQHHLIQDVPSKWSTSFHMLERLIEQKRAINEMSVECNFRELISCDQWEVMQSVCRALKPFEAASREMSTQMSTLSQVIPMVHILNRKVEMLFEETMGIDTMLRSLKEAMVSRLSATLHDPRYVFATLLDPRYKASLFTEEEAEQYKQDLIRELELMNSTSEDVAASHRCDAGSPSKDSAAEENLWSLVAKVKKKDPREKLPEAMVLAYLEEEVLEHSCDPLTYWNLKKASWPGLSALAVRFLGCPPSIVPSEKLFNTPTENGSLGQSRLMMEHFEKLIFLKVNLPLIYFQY
The assay can be described thus: IA-DTB cysteine engagement. It counts as binding. The conditions noted are these: 22Rv1 cells, 20 μM probe, 1 h, relative to DMSO. In short, it runs like this: (§1)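 Read-out is TMT-based cysteine engagement, expressed as each reporter ion intensity divided by the average of the DMSO channels. Before that, probe-treated cell lysates were capped with IA-DTB, digested, enriched on streptavidin and TMT-tagged. PSMs with DMSO summed intensity <10,000 or DMSO CV >0.5 were excluded.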

For the next assay, the target named is T2, SLC25A16_C311 (Homo sapiens, UniProt P16260).
T2 construct: endogenous in cells; host or cells: 22Rv1
T2 sequence (P16260 1-332): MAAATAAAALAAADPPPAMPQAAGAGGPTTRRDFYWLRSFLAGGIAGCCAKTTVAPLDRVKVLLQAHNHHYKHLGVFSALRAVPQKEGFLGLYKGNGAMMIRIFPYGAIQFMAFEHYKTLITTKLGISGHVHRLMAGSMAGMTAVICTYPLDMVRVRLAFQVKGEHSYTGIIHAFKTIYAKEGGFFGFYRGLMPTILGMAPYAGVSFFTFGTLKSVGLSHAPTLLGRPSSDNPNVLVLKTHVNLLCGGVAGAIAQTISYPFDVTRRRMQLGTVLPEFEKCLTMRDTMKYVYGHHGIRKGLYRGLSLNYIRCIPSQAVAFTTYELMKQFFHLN
The assay can be described thus: IA-DTB cysteine engagement. In kind it is binding. The settings on record: 22Rv1 cells, 20 μM probe, 1 h, relative to DMSO. The gist of the method: as §1

Turning to `C=CC(=O)N1C[C@@H](c2ccc(Br)cc2)[C@H]1C(=O)Nc1cccc2cccnc12` [MY-1A, (2S,3R)-1-acryloyl-3-(4-bromophenyl)-N-(quinolin-8-yl)azetidine-2-carboxamide], the “% engagement ZBED4_C599” value at ZBED4_C599 stood at 16%. Besides, the “% engagement SLC25A16_C311” value at SLC25A16_C311 is 79%.

Turning to `C=CC(=O)N1C[C@H](c2ccc(Br)cc2)[C@@H]1C(=O)Nc1cccc2cccnc12` [MY-1B, (2R,3S)-1-acryloyl-3-(4-bromophenyl)-N-(quinolin-8-yl)azetidine-2-carboxamide], the “% engagement ZBED4_C599” value on ZBED4_C599 worked out at 39%. In addition, the “% engagement SLC25A16_C311” value on SLC25A16_C311 came out at 37.5%.

For `C=CC(=O)N1C[C@H](c2ccc(Br)cc2)[C@H]1C(=O)Nc1cccc2cccnc12` [MY-3A, (2S,3S)-1-acryloyl-3-(4-bromophenyl)-N-(quinolin-8-yl)azetidine-2-carboxamide], at ZBED4_C599, the “% engagement ZBED4_C599” value is reported as 21%. In addition, the “% engagement SLC25A16_C311” value on SLC25A16_C311 was 32%.

For `C=CC(=O)N1C[C@H](c2ccc(Br)cc2)[C@H]1C(=O)Nc1cccc2cccnc12` [MY-3B, (2S,3S)-1-acryloyl-3-(4-bromophenyl)-N-(quinolin-8-yl)azetidine-2-carboxamide], at ZBED4_C599, the “% engagement ZBED4_C599” value is reported as 83.5%. The “% engagement SLC25A16_C311” value at SLC25A16_C311 was 38.5%.
